Laboratory results reported in article PMC7504387, “Antimicrobial and Amyloidogenic Activity of Peptides Synthesized on the Basis of the Ribosomal S1 Protein from Thermus Thermophilus” (International Journal of Molecular Sciences, 2020).
Where a SMILES comes first, the peptide text is derived from it.

How the values were obtained:
T. thermophilus cells = test: Electron microscopy of intact and peptide-treated T. thermophilus cells; assay type: cell-based
Method: Along with the spectrophotometric method for determining the antimicrobial activity of peptides, the viability of cells was evaluated using electron microscopy. […] At the given peptide concentration, cells with a typical morphology and flagella were often found. Many protein aggregates were also observed. The absence of an antimicrobial effect with an increase in the concentration of the peptide to 1000 μg/mL, consistent with the spectrophotometry data of the antimicrobial activity of peptides (Figure 3).
The presence of amyloid fibrils in the test samples was monitored by transmission electron microscopy (TEM). End-point solutions of peptides were collected and the samples were dissolved in the same solution to 0.2 mg/mL before studying with electron microscopy. A formvar-coated copper grid 400 mesh (Electron Microscopy Sciences, Hatfield, PA, USA) was placed on a 10 μL sample. After 5 min absorption, the grids with the preparation were negatively stained for 1.5–2.0 min with 1% (weight/volume) aqueous solution of uranyl acetate. The excess of the staining agent was removed with filter paper. The preparations were analyzed using a JEM-100C (Jeol, Tokyo, Japan) transmission electron microscope at the accelerating voltage of 80 kV. Images were recorded on the Kodak electron image film (SO-163) at nominal magnification of 40,000–60,000.

[1] = Thioflavine T fluorescence assay of peptide aggregation; assay type: physicochemical; details: peptide alone, ThT 0.2 mM, 37 °C
Method: Fibrils growth was monitored by thioflavine T (ThT) (Sigma-Aldrich, St. Louis, MO, USA) fluorescence. The kinetics of aggregation of peptides was studied using the method of fluorescence spectroscopy. Each kinetics graph was plotted based on the average of several results measured at different time intervals. To facilitate dissolution, all the samples of peptides were pre-dissolved in 100% DMSO, then buffers 50 mM Tris-HCl, pH 7.5, 150 mM NaCl or 20% acetic acid pH 2.0, 150 mM NaCl were added (1% final concentration DMSO) and filtered through […] membranes to remove small aggregates. ThT is the most commonly used fluorescent dye for the following amyloid formation semi-quantitatively in vitro. Free ThT has excitation and emission maxima at ∼350 and ∼450 nm, respectively (after binding to fibrils, the excitation and emission λmax change to ∼450 and ∼482–485 nm, respectively). A stock solution of ThT was prepared at a concentration of 20 mM in 50 mM Tris-HCl, pH 7.5, 150 mM NaCl or 20% acetic acid pH 2.0, 150 mM NaCl, respectively and stored at 4 °C protected from light. The final concentration of ThT was 0.2 mM, and each peptide was 0.2 mM. ThT was present in the sample during the fibril formation reaction. Measurements of ThT fluorescence were performed on a Cary Eclipse fluorescence spectrophotometer (Varian, Mulgrave, Australia) in quartz cells 3 × 3 mm at 37 °C.

## CC[C@H](C)[C@H](NC(=O)[C@H](CCC(=O)O)NC(=O)[C@@H](NC(=O)[C@H](Cc1ccccc1)NC(=O)[C@@H](NC(=O)CNC(=O)[C@H](Cc1ccccc1)NC(=O)[C@H](CC(=O)O)NC(=O)[C@@H](NC(=O)[C@@H](NC(=O)CNC(=O)CN(C)C(=O)CNC(=O)CNC(=O)[C@H](CCCNC(=N)N)NC(=O)[C@H](CCCNC(=N)N)NC(=O)[C@H](CCCNC(=N)N)NC(=O)[C@H](CCC(N)=O)NC(=O)[C@H](CCCNC(=N)N)NC(=O)[C@H](CCCNC(=N)N)NC(=O)[C@H](CCCCN)NC(=O)[C@H](CCCCN)NC(=O)[C@@H](N)CCCNC(=N)N)C(C)C)[C@@H](C)O)C(C)C)C(C)C)C(=O)O [R23I] (HELM PEPTIDE1{R.K.K.R.R.Q.R.R.R.G.G.[Sar].G.V.T.D.F.G.V.F.V.E.I}$$$$V2.0; N-terminus and C-terminus assumed)
T. thermophilus cells; peptide 50 μg/mL
  cell morphology by electron microscopy: whole cells were practically absent
T. thermophilus cells; peptide 100 μg/mL
  cell morphology by electron microscopy: the number of cells decreased
T. thermophilus cells; peptide 1000 μg/mL
  cell morphology by electron microscopy: did not lead to the morphological changes compared with the control
[1]
  amyloids in peptide preparation according to ThT fluorescence: absence of R23I amyloids
